Read-outs that look alike come from different tables or passages of the source.
Key:
[1] = molecular target: T1, Recombinant human NK3 (hNK3) receptor (Homo sapiens, UniProt P29371); assay: NK3 receptor binding, [3H]SR142801 displacement, membrane preparations
T1 construct: expressed in transfected cells
T1 sequence (P29371 1-465): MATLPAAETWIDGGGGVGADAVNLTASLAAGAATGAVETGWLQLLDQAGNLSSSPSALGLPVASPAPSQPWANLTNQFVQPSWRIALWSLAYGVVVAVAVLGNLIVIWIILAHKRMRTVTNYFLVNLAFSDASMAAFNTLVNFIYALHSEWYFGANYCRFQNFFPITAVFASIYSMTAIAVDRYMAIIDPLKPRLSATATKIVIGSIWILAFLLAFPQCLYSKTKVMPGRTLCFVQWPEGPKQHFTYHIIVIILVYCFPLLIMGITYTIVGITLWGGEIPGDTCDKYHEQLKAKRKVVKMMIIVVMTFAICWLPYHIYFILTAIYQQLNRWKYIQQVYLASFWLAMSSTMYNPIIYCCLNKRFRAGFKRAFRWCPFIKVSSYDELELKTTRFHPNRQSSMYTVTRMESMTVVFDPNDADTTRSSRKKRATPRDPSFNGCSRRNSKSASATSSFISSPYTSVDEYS
Summary of the method: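 Buffer: Tris-HCl 50 mM pH 7.4, BSA 0.1%, MnCl2 4 mM, phosphoramidon 1 μM. ~2.5 μg membrane/well, 90 min RT. NSB with SB222200 (10 μM). Vacuum filtration over 0.3% PEI-treated GF/C, cold Tris/BSA washes, scintillation count; duplicates, ≥2 experiments.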

human NK1 receptor = human NK1 receptor (Homo sapiens, UniProt P25103); assay: NK1 receptor binding, [3H]substance P displacement, CHO cell membranes
[2] = second value of the cell pKi NK1/NK3, hNK3 receptor, [3H]SR142801
[3] = first value of the cell pKi NK1/NK3, human NK1 receptor, [3H]substance P
[4] = second value of the cell NK1/NK3, read-out: pKi NK3 (converted)
[5] = first value of the cell NK1/NK3, read-out: pKi NK1 (converted)

human NK1 receptor, sequence (P25103 whole entry): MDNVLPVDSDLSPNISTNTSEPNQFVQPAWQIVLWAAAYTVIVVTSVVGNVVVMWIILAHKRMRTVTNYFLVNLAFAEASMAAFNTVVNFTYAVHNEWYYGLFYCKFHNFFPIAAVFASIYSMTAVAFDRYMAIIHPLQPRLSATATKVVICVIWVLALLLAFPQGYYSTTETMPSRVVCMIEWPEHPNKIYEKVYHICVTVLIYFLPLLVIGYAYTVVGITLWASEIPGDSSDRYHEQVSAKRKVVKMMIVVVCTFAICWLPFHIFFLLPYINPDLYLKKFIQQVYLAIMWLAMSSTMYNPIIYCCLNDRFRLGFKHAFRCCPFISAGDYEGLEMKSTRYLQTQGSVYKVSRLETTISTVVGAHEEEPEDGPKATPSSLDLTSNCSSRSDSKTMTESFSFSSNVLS

Row | Structure (SMILES) | Ki [1, 2] | Ki (human NK1 receptor; [3]) | Ki [1, 4] | Ki (human NK1 receptor; [5])
1 | CN(C(=O)C(C)(C)c1cc(C(F)(F)F)cc(C(F)(F)F)c1)c1cnc(N2C[C@H](O)C[C@H]2CO)cc1-c1ccccc1N [Example 213, (2S,4R)-N-[4-(2-Amino-phenyl)-6-(4-hydroxy-2-hydroxymethyl-pyrrolidin-1-yl)-pyridin-3-yl]-2-(3,5-bis-trifluoromethyl-phenyl)-N-methyl-isobutyramide] | – | – | 3.24 nM | 0.661 nM
2 | CN(C(=O)C(C)(C)c1cc(C(F)(F)F)cc(C(F)(F)F)c1)c1cnc(N2C[C@@H](O)C[C@H]2CO)cc1-c1ncccc1Cl [Example 256, (2S,4S)-2-(3,5-Bis-trifluoromethyl-phenyl)-N-[3-chloro-6′-(4-hydroxy-2-hydroxymethyl-pyrrolidin-1-yl)-[2,4′]bipyridinyl-3′-yl]-N-methyl-isobutyramide] | – | – | 20 nM | 2.4 nM
3 | CN(CCO)c1cc(-c2ccc(F)cc2)c(N(C)C(=O)C(C)(C)c2cc(C(F)(F)F)cc(C(F)(F)F)c2)cn1 [Example 115, 2-(3,5-bis-trifluoromethyl-phenyl)-N-{4-(4-fluoro-phenyl)-6-[(2-hydroxy-ethyl)-methyl-amino]-pyridin-3-yl}-N-methyl-isobutyramide] | 30.2 nM | 1.86 nM | – | –
4 | CN(C(=O)C(C)(C)c1cc(C(F)(F)F)cc(C(F)(F)F)c1)c1cnc(N2CCC(CO)C2)cc1-c1ccccc1Cl (racemic) [Example 171, (RS)-2-(3,5-Bis-trifluoromethyl-phenyl)-N-[4-(2-chloro-phenyl)-6-(3-hydroxymethyl-pyrrolidin-1-yl)-pyridin-3-yl]-N-methyl-isobutyramide] | 24.5 nM | 3.72 nM | – | –
5 | Cc1cc(F)ccc1-c1cc(N2CCC(O)C2)ncc1N(C)C(=O)C(C)(C)c1cc(C(F)(F)F)cc(C(F)(F)F)c1 (racemic) [Example 110, (RS)-2-(3,5-Bis-trifluoromethyl-phenyl)-N-[4-(4-fluoro-2-methyl-phenyl)-6-(3-hydroxy-pyrrolidin-1-yl)-pyridin-3-yl]-N-methyl-isobutyramide] | 13.8 nM | 2.63 nM | – | –

Results, then the compound that gave them:

Row | Ki [1, 2] | Ki (human NK1 receptor; [3]) | Ki [1, 4] | Ki (human NK1 receptor; [5]) | Structure (SMILES)
6 | 10.5 nM | 1.35 nM | – | – | C[C@@H](CO)Nc1cc(-c2ccccc2Cl)c(N(C)C(=O)C(C)(C)c2cc(C(F)(F)F)cc(C(F)(F)F)c2)cn1 [Example 79, (S)-2-(3,5-Bis-trifluoromethyl-phenyl)-N-[4-(2-chloro-phenyl)-6-(2-hydroxy-1-methyl-ethylamino)-pyridin-3-yl]-N-methyl-isobutyramide]
7 | 6.76 nM | 1.62 nM | – | – | Cc1cc(F)ccc1-c1cc(N2CC[C@H](NS(C)(=O)=O)C2)ncc1N(C)C(=O)C(C)(C)c1cc(C(F)(F)F)cc(C(F)(F)F)c1 [Example 104, (S)-2-(3,5-Bis-trifluoromethyl-phenyl)-N-[4-(4-fluoro-2-methyl-phenyl)-6-(3-methanesulfonylamino-pyrrolidin-1-yl)-pyridin-3-yl]-N-methyl-isobutyramide]
8 | 10.5 nM | 2.04 nM | – | – | CN(C(=O)C(C)(C)c1cc(C(F)(F)F)cc(C(F)(F)F)c1)c1cnc(N2C[C@H](O)C[C@H]2CO)cc1-c1ccc(Cl)cc1 [Example 203, (2S,4R)-2-(3,5-Bis-trifluoromethyl-phenyl)-N-[4-(4-chloro-phenyl)-6-(4-hydroxy-2-hydroxymethyl-pyrrolidin-1-yl)-pyridin-3-yl]-N-methyl-isobutyramide]
9 | 7.94 nM | 1.1 nM | – | – | CN(C(=O)C(C)(C)c1cc(C(F)(F)F)cc(C(F)(F)F)c1)c1cnc(N2CCC(CO)CC2)cc1-c1ccccc1Cl [Example 52, 2-(3,5-Bis-trifluoromethyl-phenyl)-N-[4′-(2-chloro-phenyl)-4-hydroxymethyl-3,4,5,6-tetrahydro-2H-[1,2′]bipyridinyl-5′-yl]-N-methyl-isobutyramide]
10 | 1 nM | 1.66 nM | – | – | CN(C(=O)C(C)(C)c1cc(C(F)(F)F)cc(C(F)(F)F)c1)c1cnc(N2CC[C@H](O)[C@H]2CO)cc1-c1ccccc1Cl [Example 138, (2R,3S)-2-(3,5-Bis-trifluoromethyl-phenyl)-N-[4-(2-chloro-phenyl)-6-(3-hydroxy-2-hydroxymethyl-pyrrolidin-1-yl)-pyridin-3-yl]-N-methyl-isobutyramide]
